Source: the supplement of paper PMC5844555

Tests used:
Test in all cases: 3' UTR reporter interaction score (median-centred robust z-score of log2 firefly/Renilla activity); higher = less repression of the 3' UTR reporter
Settings in all cases: HEK293T; 48 h
RB1 = test system: RB1
Procedure, shortened: (§1)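 HEK293T cells (10,000/well, 96-well plates) were co-transfected using DharmaFECT Duo with 100 ng firefly luc2P reporter carrying the gene's 3' UTR, 20 ng Renilla pRL-TK control and 2.5 pmol miRNA mimic. Dual-luciferase activities were read 48 h post-transfection. The interaction score is the log-transformed firefly/Renilla ratio as a per-plate robust z-score (median, median absolute deviation), median-centred per miRNA and averaged over at least two independent screens; more negative indicates interaction.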

NOTCH1 = test system: NOTCH1
Procedure, shortened: as §1

MYCN = test system: MYCN
Procedure, shortened: as §1

PHF6 = test system: PHF6
Procedure, shortened: as §1

BRCA2 = test system: BRCA2
Procedure, shortened: as §1

FBXW7 = test system: FBXW7
Procedure, shortened: as §1

MYB = test system: MYB
Procedure, shortened: as §1

MYC = test system: MYC
Procedure, shortened: as §1

EZH2 = test system: EZH2
Procedure, shortened: as §1

PHOX2B = test system: PHOX2B
Procedure, shortened: as §1

ZEB2 = test system: ZEB2
Procedure, shortened: as §1

HRAS = test system: HRAS
Procedure, shortened: as §1

TP53 = test system: TP53
Procedure, shortened: as §1

MYT1L = test system: MYT1L
Procedure, shortened: as §1

In the case of CAAAAAUCUCAAUUACUUUUGC, the “3' UTR reporter interaction score” value (RB1) is reported as -0.319, the “3' UTR reporter interaction score” value (NOTCH1) is reported as -0.966 and the “3' UTR reporter interaction score” value (MYCN) is reported as 0.123. The “3' UTR reporter interaction score” value (PHF6) was -0.915, the “3' UTR reporter interaction score” value (BRCA2) was -0.215 and the “3' UTR reporter interaction score” value (FBXW7) was 0.748. For the same sequence, the “3' UTR reporter interaction score” value (MYB) was -1.38, the “3' UTR reporter interaction score” value (MYC) was 0.393 and the “3' UTR reporter interaction score” value (EZH2) was 0.0697. For the same sequence, the “3' UTR reporter interaction score” value (PHOX2B) was 0.42, the “3' UTR reporter interaction score” value (ZEB2) was -0.266 and the “3' UTR reporter interaction score” value (HRAS) was -0.151. For the same sequence, the “3' UTR reporter interaction score” value (TP53) was 0.17 and the “3' UTR reporter interaction score” value (MYT1L) was 0.42.
With CAAAACUGGCAAUUACUUUUGC the “3' UTR reporter interaction score” value (RB1) was 0.322, the “3' UTR reporter interaction score” value (NOTCH1) was 0.158 and the “3' UTR reporter interaction score” value (MYCN) was -0.107. For the same sequence, the “3' UTR reporter interaction score” value (PHF6) was -1.26, the “3' UTR reporter interaction score” value (BRCA2) was -0.307 and the “3' UTR reporter interaction score” value (FBXW7) was -2.13. For the same sequence, the “3' UTR reporter interaction score” value (MYB) was -1.52, the “3' UTR reporter interaction score” value (MYC) was -0.183 and the “3' UTR reporter interaction score” value (EZH2) was 0.755. For the same sequence, the “3' UTR reporter interaction score” value (PHOX2B) was -0.532, the “3' UTR reporter interaction score” value (ZEB2) was 0.0176 and the “3' UTR reporter interaction score” value (HRAS) was 0.367. For the same sequence, the “3' UTR reporter interaction score” value (TP53) was 0.751 and the “3' UTR reporter interaction score” value (MYT1L) was -0.395.
With CAAAGAAUUCUCCUUUUGGGCUU the “3' UTR reporter interaction score” value (RB1) was 1.54, the “3' UTR reporter interaction score” value (NOTCH1) was 1.33 and the “3' UTR reporter interaction score” value (MYCN) was 0.453. For the same sequence, the “3' UTR reporter interaction score” value (PHF6) was -0.267, the “3' UTR reporter interaction score” value (BRCA2) was -0.174 and the “3' UTR reporter interaction score” value (FBXW7) was -0.499. The “3' UTR reporter interaction score” value (MYB) was 0.952, the “3' UTR reporter interaction score” value (MYC) was -0.381 and the “3' UTR reporter interaction score” value (EZH2) was -0.313. For the same sequence, the “3' UTR reporter interaction score” value (PHOX2B) was -0.413, the “3' UTR reporter interaction score” value (ZEB2) was -0.283 and the “3' UTR reporter interaction score” value (HRAS) was 0.0982. For the same sequence, the “3' UTR reporter interaction score” value (TP53) was -0.294 and the “3' UTR reporter interaction score” value (MYT1L) was 0.219.
With CAAAGAGGAAGGUCCCAUUAC the “3' UTR reporter interaction score” value (RB1) was -0.878, the “3' UTR reporter interaction score” value (NOTCH1) was -0.106 and the “3' UTR reporter interaction score” value (MYCN) was 0.419. The “3' UTR reporter interaction score” value (PHF6) was -0.348, the “3' UTR reporter interaction score” value (BRCA2) was -0.346 and the “3' UTR reporter interaction score” value (FBXW7) was 0.456. For the same sequence, the “3' UTR reporter interaction score” value (MYB) was 0.328, the “3' UTR reporter interaction score” value (MYC) was -0.255 and the “3' UTR reporter interaction score” value (EZH2) was -0.46. For the same sequence, the “3' UTR reporter interaction score” value (PHOX2B) was -0.488, the “3' UTR reporter interaction score” value (ZEB2) was 1.21 and the “3' UTR reporter interaction score” value (HRAS) was 0.586. The “3' UTR reporter interaction score” value (TP53) was -1.21 and the “3' UTR reporter interaction score” value (MYT1L) was -0.262.
With CAAAGCGCUCCCCUUUAGAGGU the “3' UTR reporter interaction score” value (RB1) was -1.27, the “3' UTR reporter interaction score” value (NOTCH1) was -0.101 and the “3' UTR reporter interaction score” value (MYCN) was -0.228. The “3' UTR reporter interaction score” value (PHF6) was 1.12, the “3' UTR reporter interaction score” value (BRCA2) was -0.715 and the “3' UTR reporter interaction score” value (FBXW7) was -0.27. For the same sequence, the “3' UTR reporter interaction score” value (MYB) was -0.147, the “3' UTR reporter interaction score” value (MYC) was 0.756 and the “3' UTR reporter interaction score” value (EZH2) was 0.467. For the same sequence, the “3' UTR reporter interaction score” value (PHOX2B) was 0.264, the “3' UTR reporter interaction score” value (ZEB2) was 1.31 and the “3' UTR reporter interaction score” value (HRAS) was 1.33. The “3' UTR reporter interaction score” value (TP53) was -0.173 and the “3' UTR reporter interaction score” value (MYT1L) was -0.44.
In the case of CAAAGCGCUUCCCUUUGGAGC, the “3' UTR reporter interaction score” value (RB1) is reported as -0.468, the “3' UTR reporter interaction score” value (NOTCH1) is reported as 0.413 and the “3' UTR reporter interaction score” value (MYCN) is reported as 0.103. The “3' UTR reporter interaction score” value (PHF6) was 0.27, the “3' UTR reporter interaction score” value (BRCA2) was -0.805 and the “3' UTR reporter interaction score” value (FBXW7) was 0.503. For the same sequence, the “3' UTR reporter interaction score” value (MYB) was -0.305, the “3' UTR reporter interaction score” value (MYC) was -0.581 and the “3' UTR reporter interaction score” value (EZH2) was 0.322. The “3' UTR reporter interaction score” value (PHOX2B) was 0.957, the “3' UTR reporter interaction score” value (ZEB2) was 0.353 and the “3' UTR reporter interaction score” value (HRAS) was 0.795. For the same sequence, the “3' UTR reporter interaction score” value (TP53) was -0.385 and the “3' UTR reporter interaction score” value (MYT1L) was -0.495.
In the case of CAAAGCGCUUCUCUUUAGAGUG, the “3' UTR reporter interaction score” value (RB1) is reported as -4.99e-18, the “3' UTR reporter interaction score” value (NOTCH1) is reported as 0.203 and the “3' UTR reporter interaction score” value (MYCN) is reported as -0.402. The “3' UTR reporter interaction score” value (PHF6) was 1.07, the “3' UTR reporter interaction score” value (BRCA2) was 0.562 and the “3' UTR reporter interaction score” value (FBXW7) was -1.3. For the same sequence, the “3' UTR reporter interaction score” value (MYB) was -0.443, the “3' UTR reporter interaction score” value (MYC) was 1.05 and the “3' UTR reporter interaction score” value (EZH2) was 0.725. For the same sequence, the “3' UTR reporter interaction score” value (PHOX2B) was -1.15, the “3' UTR reporter interaction score” value (ZEB2) was -0.101 and the “3' UTR reporter interaction score” value (HRAS) was 0.465. For the same sequence, the “3' UTR reporter interaction score” value (TP53) was 0.068 and the “3' UTR reporter interaction score” value (MYT1L) was -0.533.
CAAAGUGCCUCCCUUUAGAGUGU was tested, and the “3' UTR reporter interaction score” value (RB1) was -0.937, the “3' UTR reporter interaction score” value (NOTCH1) was 0.00359 and the “3' UTR reporter interaction score” value (MYCN) was 0.839. For the same sequence, the “3' UTR reporter interaction score” value (PHF6) was 0.15, the “3' UTR reporter interaction score” value (BRCA2) was 0.407 and the “3' UTR reporter interaction score” value (FBXW7) was 0.81. The “3' UTR reporter interaction score” value (MYB) was 0.155, the “3' UTR reporter interaction score” value (MYC) was -0.351 and the “3' UTR reporter interaction score” value (EZH2) was -0.27. For the same sequence, the “3' UTR reporter interaction score” value (PHOX2B) was 0.0452, the “3' UTR reporter interaction score” value (ZEB2) was -0.0865 and the “3' UTR reporter interaction score” value (HRAS) was 0.317. The “3' UTR reporter interaction score” value (TP53) was 0.418 and the “3' UTR reporter interaction score” value (MYT1L) was -0.343.
With CAAAGUGCUCAUAGUGCAGGUAG the “3' UTR reporter interaction score” value (RB1) was 0.42, the “3' UTR reporter interaction score” value (NOTCH1) was 1.52 and the “3' UTR reporter interaction score” value (MYCN) was -0.62. The “3' UTR reporter interaction score” value (PHF6) was 0.651, the “3' UTR reporter interaction score” value (BRCA2) was 0.253 and the “3' UTR reporter interaction score” value (FBXW7) was 1. For the same sequence, the “3' UTR reporter interaction score” value (MYB) was -1.73, the “3' UTR reporter interaction score” value (MYC) was -0.364 and the “3' UTR reporter interaction score” value (EZH2) was -0.533. For the same sequence, the “3' UTR reporter interaction score” value (PHOX2B) was 1.67, the “3' UTR reporter interaction score” value (ZEB2) was 1.98 and the “3' UTR reporter interaction score” value (HRAS) was 0.757. For the same sequence, the “3' UTR reporter interaction score” value (TP53) was 0.0738 and the “3' UTR reporter interaction score” value (MYT1L) was -1.37.
With CAAAGUUUAAGAUCCUUGAAGU the “3' UTR reporter interaction score” value (RB1) was 0.395, the “3' UTR reporter interaction score” value (NOTCH1) was -0.31 and the “3' UTR reporter interaction score” value (MYCN) was -0.796. For the same sequence, the “3' UTR reporter interaction score” value (PHF6) was 0.33, the “3' UTR reporter interaction score” value (BRCA2) was 0.573 and the “3' UTR reporter interaction score” value (FBXW7) was -0.767. For the same sequence, the “3' UTR reporter interaction score” value (MYB) was 0.577, the “3' UTR reporter interaction score” value (MYC) was -0.333 and the “3' UTR reporter interaction score” value (EZH2) was 0.55. The “3' UTR reporter interaction score” value (PHOX2B) was -2.34, the “3' UTR reporter interaction score” value (ZEB2) was -0.576 and the “3' UTR reporter interaction score” value (HRAS) was 0.215. For the same sequence, the “3' UTR reporter interaction score” value (TP53) was -0.363 and the “3' UTR reporter interaction score” value (MYT1L) was 0.732.
